The values below come from patent US8524194B2, “Radiolabelled MMP selective compounds” (Academisch Medisch Centrum Bij de Universiteit van Amsterdam, priority 2008, dated 2013).

What is called IC50 is the midpoint of a concentration-inhibition curve.

Structures are written as SMILES.

The target of one data set is T1, MMP-1 (Homo sapiens, UniProt P03956).
T1 sequence (P03956 100-469): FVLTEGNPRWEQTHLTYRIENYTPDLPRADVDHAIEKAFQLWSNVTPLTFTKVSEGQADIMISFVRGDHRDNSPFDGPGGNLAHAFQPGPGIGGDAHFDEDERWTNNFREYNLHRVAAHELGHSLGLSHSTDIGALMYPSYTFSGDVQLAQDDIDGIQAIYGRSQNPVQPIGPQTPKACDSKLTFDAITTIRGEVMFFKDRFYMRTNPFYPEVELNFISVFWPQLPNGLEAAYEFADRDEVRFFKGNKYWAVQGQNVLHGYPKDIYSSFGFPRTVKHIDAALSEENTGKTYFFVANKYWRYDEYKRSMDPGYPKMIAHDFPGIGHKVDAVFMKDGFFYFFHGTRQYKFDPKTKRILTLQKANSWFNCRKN
The data set is described as follows: in vitro MMP inhibition, MMP-1. Format: biochemical. The conditions noted are these: preliminary results.

In a further data set the target is MMP-9 (Homo sapiens, UniProt P14780). In words: in vitro MMP inhibition, MMP-9. Format: biochemical. The conditions noted are these: preliminary results.
Chain of MMP-9 (P14780 94-707, species assumed): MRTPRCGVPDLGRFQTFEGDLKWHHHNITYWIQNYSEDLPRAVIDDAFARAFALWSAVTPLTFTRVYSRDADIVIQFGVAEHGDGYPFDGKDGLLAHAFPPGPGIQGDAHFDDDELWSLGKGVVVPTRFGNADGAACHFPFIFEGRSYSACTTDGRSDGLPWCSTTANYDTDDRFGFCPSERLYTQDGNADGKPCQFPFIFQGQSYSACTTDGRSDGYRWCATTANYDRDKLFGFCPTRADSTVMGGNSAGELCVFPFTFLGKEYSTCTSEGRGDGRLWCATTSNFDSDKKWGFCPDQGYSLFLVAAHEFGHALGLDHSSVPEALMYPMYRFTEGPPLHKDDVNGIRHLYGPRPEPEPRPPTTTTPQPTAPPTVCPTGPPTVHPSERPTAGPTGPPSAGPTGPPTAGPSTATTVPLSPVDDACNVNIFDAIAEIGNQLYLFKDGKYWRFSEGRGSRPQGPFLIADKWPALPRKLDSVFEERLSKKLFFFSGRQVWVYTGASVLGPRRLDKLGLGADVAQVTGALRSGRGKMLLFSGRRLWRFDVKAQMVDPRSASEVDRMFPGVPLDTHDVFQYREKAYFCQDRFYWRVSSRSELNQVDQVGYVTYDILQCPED
Another data set has as its target T2, MMP-2 (Homo sapiens, UniProt P08253).
T2 sequence (P08253 110-660): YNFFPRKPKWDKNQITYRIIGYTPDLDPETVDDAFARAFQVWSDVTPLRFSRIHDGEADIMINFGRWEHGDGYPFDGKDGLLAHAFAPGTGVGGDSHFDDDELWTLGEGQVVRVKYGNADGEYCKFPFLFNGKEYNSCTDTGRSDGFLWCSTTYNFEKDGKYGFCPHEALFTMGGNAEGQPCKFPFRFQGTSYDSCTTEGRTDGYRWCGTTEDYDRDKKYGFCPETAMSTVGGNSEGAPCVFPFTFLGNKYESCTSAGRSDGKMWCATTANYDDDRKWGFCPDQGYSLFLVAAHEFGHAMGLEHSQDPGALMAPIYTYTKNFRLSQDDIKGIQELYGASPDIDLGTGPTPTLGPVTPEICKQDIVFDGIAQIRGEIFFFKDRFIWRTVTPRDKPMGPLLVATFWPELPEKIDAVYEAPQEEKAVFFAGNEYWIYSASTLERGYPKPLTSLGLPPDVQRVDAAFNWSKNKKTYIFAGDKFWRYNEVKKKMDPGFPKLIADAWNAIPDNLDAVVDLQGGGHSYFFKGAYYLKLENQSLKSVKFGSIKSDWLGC
In words: in vitro MMP inhibition, MMP-2. The conditions noted are these: preliminary results. Format: biochemical.

A short description of data set [1]: tissue biodistribution after intravenous administration. Format: in vivo, CL57/BL6 mice. The conditions noted are these: i.v. As to the method: Because the in vitro studies gave promising results, preliminary in vivo studies were performed using the CL57/BL6 mice (8 weeks old). The tissue distribution of [^123I]8 (which is representative for the radioisotopes with alternative halogens), after intravenous administration, was determined at three time points. […] This is regular pharmacokinetic behaviour of a radiotracer.
The extended biodistribution studies were performed using the CL57/BL6 mice (8 weeks old). Here the tissue distribution of [^123I]8, after intravenous administration was determined at 9 time points (up to 24 hours p.i.).

The test system of data set [2] is atherosclerotic plaques (MMP-2). The data set is described as follows: binding to atherosclerotic plaques in the aortic sinus, storage phosphor imaging. As to conditions: ApoE−/− mice on Western Type diet, i.v., three hours after injection, FIG. 3. Format: in vivo.
Protocol: Four month old ApoE−/− mice were given a Western Type diet (cat nr. 4021.06; Arie Blok Diervoeding, Woerden, the Netherlands), during one month to stimulate atherogenesis. On the last day of the experiment the radiolabeled MMP-2 antagonist was given by intravenous injection. Three hours after injection, the mice were harvested and the aortic sinus area was analysed overnight using a storage phosphor imaging technique for binding of the MMP2 antagonist.
The mark [3] stands for this setting: CL57/BL6 mice 8 weeks old, three time points, FIG. 1.

In the case of `O=C(O)CN(CC(=O)NO)S(=O)(=O)c1ccc(Oc2ccccc2)cc1` [Compound 6a, {[4-Phenoxy-benzenesulphonyl]-hydroxycarbamoylmethyl-amino}-acetic acid], the IC50 at MMP-1 stood at 1670 ± 980 nM; on MMP-9, 4.31 ± 2.06 nM; on MMP-2 it was 1.89 ± 1.11 nM.

For `O=C(O)CN(CC(=O)NO)S(=O)(=O)c1ccc(Oc2ccc(F)cc2)cc1` [Compound 6b, {[4-(4-Fluoro-phenoxy)-benzenesulphonyl]-hydroxycarbamoylmethyl-amino}-acetic acid], the IC50 against MMP-1 is 4690 ± 2220 nM; against MMP-9 it was 0.27 ± 0.15 nM; against MMP-2, 0.13 ± 0.03 nM.

As to `O=C(O)CN(CC(=O)NO)S(=O)(=O)c1ccc(Oc2ccc(Br)cc2)cc1` [Compound 6d, {[4-(4-Bromo-phenoxy)-benzenesulphonyl]-hydroxycarbamoylmethyl-amino}-acetic acid], the IC50 against MMP-1 is 910 ± 560 nM; against MMP-9 it was 1.95 ± 1.1 nM; on MMP-2, 0.87 ± 0.4 nM.

On to `O=C(O)CN(CC(=O)NO)S(=O)(=O)c1ccc(Oc2ccc(I)cc2)cc1` [Compound 6e, {[4-(4-Iodo-phenoxy)-benzenesulphonyl]-hydroxycarbamoylmethyl-amino}-acetic acid], for which the values for the half-inhibitory concentration (IC50) against MMP-1, at MMP-9 and at MMP-2 were 1320 ± 790 nM, 1.61 ± 1.41 nM and 7.64 ± 1.43 nM, respectively.

Regarding `O=C(O)CN(CC(=O)NO)S(=O)(=O)c1ccc(Oc2ccc([123I])cc2)cc1` [[^123I]8, {[4-(4-[^123I]Iodophenoxy)-benzenesulphonyl]-hydroxycarbamoylmethyl-amino}-acetic acid], in data set [1] (setting [3]), the liver uptake result is reported as “taken up intensively into the liver”, the route of excretion result is “excreted mainly via the urinary tract” and the “thyroid uptake (de-iodination in vivo)” value is on record as “very low uptake in the thyroid”. Besides, in data set [1] (CL57/BL6 mice, 9 time points up to 24 hours p.i., FIG. 2), the “re-uptake in liver and kidney” value was “A little re-uptake was observed in the liver and kidney after 3 and 6 hours respectively”. Moreover, in data set [2], the “radioactivity in the aortic sinus” value is listed as “Increased radioactivity was observed in the aortic sinus of the heart”.
